Test results published in patent US10508120B2, “TYK2 inhibitors and uses thereof” (Nimbus Lakshmi, Inc., priority 2017, dated 2019).
Where two headings read alike, the source gives them in different places.

Columns and labels:
[1] = target: human TYK2 (JH2domain-pseudokinase) (Homo sapiens (Human), UniProt P29597); test: TYK2 JH2 Domain Binding Assay (KINOMEscan)
In short: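 Competition binding of an NFkB-DBD fusion of human TYK2 JH2 (G556–D888), expressed in HEK293 and used as crude extract at <0.1 nM, against immobilized ligand beads; 1 h at room temperature in PBS/Tween/DTT/BSA buffer, 0.9% DMSO.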

Tyk2 kinase domain (DH1) = Tyk2 kinase domain (DH1) (Homo sapiens (Human), UniProt P29597); test: Tyk2 Radioactive Kinase Assay; format: biochemical; conditions: for inhibition at 10 µM: read-out: Tyk2 JH1% Inhibition @ 10 μM
In short: (§1)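 Single-point screen: 10 μM test compound, radioactive kinase read-out, percent inhibition reported for each kinase domain.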

[2] = target: Tyk2/JAK2 (heterodimeric complex) (Homo sapiens (Human), UniProt P29597); test: IL-12 Induced pSTAT4 in Human PBMC; format: cell-based; conditions: 1.7 ng/mL IL-12
Excerpt: The IL-12 Induced pSTAT4 assay evaluates the inhibition of IL-12 induced STAT4 phophorylation mediated by Tyk2/JAK2 (heterodimeric complex).

JAK2 kinase domain (JH1) = JAK2 kinase domain (JH1) (Homo sapiens (Human), UniProt O60674); test: JAK2 Radioactive Kinase Assay; format: biochemical; conditions: for inhibition at 10 µM: read-out: JAK2 JH1% Inhibition @ 10 μM
In short: as §1

[3] = target: JAK2/JAK2 homdimeric complex (Homo sapiens (Human), UniProt O60674); test: GM-CSF Induced pSTAT5 in Human PBMC; format: cell-based; conditions: GM-CSF 5 ng/mL for 20 minutes, pSTAT5 by MSD, read-out: PBMC_GMCSF_pSTAT5 IC50
Chain of JAK2/JAK2 homdimeric complex (O60674 whole entry): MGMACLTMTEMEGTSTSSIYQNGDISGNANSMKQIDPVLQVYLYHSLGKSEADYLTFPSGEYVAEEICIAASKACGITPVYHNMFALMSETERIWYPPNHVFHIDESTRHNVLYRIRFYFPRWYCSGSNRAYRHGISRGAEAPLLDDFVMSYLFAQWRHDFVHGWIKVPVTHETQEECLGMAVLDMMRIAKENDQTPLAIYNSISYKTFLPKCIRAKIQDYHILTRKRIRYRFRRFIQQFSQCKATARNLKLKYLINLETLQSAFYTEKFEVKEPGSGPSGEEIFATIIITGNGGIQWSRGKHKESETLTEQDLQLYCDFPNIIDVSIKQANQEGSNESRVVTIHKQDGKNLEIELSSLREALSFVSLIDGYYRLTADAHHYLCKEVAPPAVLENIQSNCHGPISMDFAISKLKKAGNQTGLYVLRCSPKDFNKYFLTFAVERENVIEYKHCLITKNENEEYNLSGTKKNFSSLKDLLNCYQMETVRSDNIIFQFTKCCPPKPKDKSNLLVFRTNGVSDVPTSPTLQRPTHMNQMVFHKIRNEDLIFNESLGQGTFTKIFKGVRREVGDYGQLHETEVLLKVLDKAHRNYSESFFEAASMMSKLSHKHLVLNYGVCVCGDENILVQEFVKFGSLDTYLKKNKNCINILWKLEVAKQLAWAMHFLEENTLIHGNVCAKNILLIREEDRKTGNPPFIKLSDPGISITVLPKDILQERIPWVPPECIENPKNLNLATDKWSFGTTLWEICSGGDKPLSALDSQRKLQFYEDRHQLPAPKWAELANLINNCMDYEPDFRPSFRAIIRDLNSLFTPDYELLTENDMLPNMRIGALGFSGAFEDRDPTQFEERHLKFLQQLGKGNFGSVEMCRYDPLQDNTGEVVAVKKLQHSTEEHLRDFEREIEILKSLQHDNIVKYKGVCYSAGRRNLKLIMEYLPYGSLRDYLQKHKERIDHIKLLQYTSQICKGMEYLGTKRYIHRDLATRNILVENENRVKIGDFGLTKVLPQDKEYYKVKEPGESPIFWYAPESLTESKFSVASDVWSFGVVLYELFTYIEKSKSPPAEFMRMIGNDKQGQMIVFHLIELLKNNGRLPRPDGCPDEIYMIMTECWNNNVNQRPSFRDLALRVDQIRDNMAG
Chain of JAK2/JAK2 homdimeric complex (P32927 17-897 partner): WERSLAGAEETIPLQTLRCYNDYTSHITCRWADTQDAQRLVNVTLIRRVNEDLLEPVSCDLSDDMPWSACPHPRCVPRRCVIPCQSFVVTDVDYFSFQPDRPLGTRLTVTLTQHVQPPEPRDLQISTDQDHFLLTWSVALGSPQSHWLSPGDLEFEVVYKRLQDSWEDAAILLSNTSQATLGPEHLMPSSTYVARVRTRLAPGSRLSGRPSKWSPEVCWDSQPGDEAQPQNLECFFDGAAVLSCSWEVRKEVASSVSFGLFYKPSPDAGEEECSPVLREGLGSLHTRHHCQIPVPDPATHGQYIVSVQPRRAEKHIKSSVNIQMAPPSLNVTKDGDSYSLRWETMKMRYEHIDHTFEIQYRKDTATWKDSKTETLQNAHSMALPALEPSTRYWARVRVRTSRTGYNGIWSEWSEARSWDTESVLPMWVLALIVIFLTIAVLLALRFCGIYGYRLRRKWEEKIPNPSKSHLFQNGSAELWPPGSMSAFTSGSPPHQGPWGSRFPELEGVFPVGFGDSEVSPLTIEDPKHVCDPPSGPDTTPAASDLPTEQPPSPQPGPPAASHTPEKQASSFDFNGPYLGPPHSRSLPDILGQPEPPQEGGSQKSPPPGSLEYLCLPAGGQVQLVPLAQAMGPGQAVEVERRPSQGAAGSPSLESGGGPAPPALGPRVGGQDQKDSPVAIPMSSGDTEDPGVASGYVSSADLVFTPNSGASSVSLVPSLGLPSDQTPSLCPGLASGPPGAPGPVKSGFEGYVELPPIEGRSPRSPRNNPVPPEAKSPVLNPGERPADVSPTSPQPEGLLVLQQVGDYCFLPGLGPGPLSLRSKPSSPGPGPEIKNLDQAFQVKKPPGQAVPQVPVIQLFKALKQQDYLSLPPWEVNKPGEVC

Chain of Tyk2 kinase domain (DH1) (P29597 897-1176): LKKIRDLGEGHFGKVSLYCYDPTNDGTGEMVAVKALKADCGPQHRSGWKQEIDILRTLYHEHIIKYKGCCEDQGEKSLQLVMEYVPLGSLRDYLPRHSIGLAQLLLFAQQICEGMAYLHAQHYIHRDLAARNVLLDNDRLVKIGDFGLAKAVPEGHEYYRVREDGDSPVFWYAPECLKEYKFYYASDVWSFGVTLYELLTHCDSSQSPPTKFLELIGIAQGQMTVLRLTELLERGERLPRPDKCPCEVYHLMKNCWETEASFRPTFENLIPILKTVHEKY
Chain of human TYK2 (JH2domain-pseudokinase) (P29597 556-888): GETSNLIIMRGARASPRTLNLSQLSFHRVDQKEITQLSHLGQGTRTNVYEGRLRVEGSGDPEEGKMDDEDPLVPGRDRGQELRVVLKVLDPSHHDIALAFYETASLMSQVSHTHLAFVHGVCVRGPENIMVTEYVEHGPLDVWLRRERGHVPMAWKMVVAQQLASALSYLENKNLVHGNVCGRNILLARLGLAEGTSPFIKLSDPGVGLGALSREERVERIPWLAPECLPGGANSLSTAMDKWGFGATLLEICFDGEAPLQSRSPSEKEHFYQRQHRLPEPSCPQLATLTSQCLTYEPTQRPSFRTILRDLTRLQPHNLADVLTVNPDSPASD
Chain of JAK2 kinase domain (JH1) (O60674 849-1124): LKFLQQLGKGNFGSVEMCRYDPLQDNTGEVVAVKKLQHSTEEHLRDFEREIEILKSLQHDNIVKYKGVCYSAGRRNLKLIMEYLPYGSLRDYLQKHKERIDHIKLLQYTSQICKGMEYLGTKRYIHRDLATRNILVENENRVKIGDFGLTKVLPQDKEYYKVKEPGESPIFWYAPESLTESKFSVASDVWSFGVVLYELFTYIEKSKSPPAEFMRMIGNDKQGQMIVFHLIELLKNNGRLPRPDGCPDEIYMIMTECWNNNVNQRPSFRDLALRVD
Chain of Tyk2/JAK2 (heterodimeric complex) (P29597 whole entry, other chains not shown): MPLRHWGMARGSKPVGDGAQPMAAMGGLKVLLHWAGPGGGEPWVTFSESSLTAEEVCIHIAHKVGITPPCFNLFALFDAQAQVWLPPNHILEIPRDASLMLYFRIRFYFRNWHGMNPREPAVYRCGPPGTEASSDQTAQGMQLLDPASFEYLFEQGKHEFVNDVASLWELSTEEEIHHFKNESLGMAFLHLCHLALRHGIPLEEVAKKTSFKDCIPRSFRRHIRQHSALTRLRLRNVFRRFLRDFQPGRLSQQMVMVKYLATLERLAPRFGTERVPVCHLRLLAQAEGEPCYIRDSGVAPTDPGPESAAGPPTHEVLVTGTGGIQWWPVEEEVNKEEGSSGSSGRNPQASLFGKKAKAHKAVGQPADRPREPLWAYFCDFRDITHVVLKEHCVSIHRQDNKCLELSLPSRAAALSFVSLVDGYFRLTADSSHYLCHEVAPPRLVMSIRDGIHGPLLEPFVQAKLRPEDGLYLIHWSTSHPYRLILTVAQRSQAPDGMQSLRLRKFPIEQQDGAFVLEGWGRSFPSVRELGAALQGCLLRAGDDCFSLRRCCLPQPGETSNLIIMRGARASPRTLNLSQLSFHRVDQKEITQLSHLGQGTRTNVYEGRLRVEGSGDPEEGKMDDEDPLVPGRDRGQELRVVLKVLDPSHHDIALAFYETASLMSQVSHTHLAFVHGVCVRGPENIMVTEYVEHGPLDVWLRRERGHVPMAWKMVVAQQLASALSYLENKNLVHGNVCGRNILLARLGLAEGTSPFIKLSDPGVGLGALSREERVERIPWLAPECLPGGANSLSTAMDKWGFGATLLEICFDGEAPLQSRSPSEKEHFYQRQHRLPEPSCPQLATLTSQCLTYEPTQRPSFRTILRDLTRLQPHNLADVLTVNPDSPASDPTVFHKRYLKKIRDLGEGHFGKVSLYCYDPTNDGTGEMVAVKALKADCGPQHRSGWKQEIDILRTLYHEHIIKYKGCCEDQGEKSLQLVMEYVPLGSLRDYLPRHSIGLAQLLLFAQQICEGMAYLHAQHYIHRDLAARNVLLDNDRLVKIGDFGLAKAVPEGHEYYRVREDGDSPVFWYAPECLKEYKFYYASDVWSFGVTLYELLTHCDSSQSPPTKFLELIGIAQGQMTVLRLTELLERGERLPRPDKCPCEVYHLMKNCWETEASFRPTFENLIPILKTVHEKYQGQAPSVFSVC

SMILES | Kd [1] [nM] | inhibition at 10 µM (Tyk2 kinase domain (DH1); compound at 10 μM, ATP 10 μM) [%] | IC50 [2] [nM] | inhibition at 10 µM (JAK2 kinase domain (JH1); compound at 10 μM, ATP 10 μM) [%] | IC50 [3] [nM] | inhibition at 10 µM (Tyk2 kinase domain (DH1); 10 μM compound, 10 μM ATP) [%] | inhibition at 10 µM (JAK2 kinase domain (JH1); 10 μM compound, 10 μM ATP) [%] | Tyk2 JH1% Inhibition @ 10 μM (Tyk2 kinase domain (DH1); compound at 10 μM, ATP 10 μM) | JAK2 JH1% Inhibition @ 10 μM (JAK2 kinase domain (JH1); compound at 10 μM, ATP 10 μM)
CNc1cc(Nc2cccn(-c3ccc(F)cc3)c2=O)nc2c(C(N)=O)cnn12 [I-9] | < 0.2 | < 50 | 100 to 500 | < 50 |  |  |  |  | 
CNc1cc(Nc2cccn([C@H]3CC[C@](C)(O)CC3)c2=O)nc2c(C(=O)NC3CC3)cnn12 [I-371] | < 0.2 | < 50 | 100 to 500 | < 50 |  |  |  |  | 
CNc1cc(Nc2cccn(-c3nn(C)cc3C)c2=O)nc2c(C(=O)NC3CC3)cnn12 [I-404] | 0.2 to 1 | < 50 | > 1000 | < 50 |  |  |  |  | 
CNc1cc(Nc2cccn(-c3nn(C)cc3C)c2=O)nc2c(C(=O)N[C@H]3C[C@H]3F)cnn12 [I-405] | 0.2 to 1 | < 50 | 100 to 500 | < 50 |  |  |  |  | 
[2H]C([2H])([2H])Oc1ncccc1Nc1cc(NC)n2ncc(C(=O)NC3CC4(COC4)C3)c2n1 [I-417, 5-((2-(methoxy-d3)pyridin-3-yl)amino)-7-(methylamino)-N-(2-oxaspiro[3.3]heptan-6-yl)pyrazolo[1,5-a]pyrimidine-3-carboxamide] |  | < 50 | 100 to 500 | < 50 | > 50000 |  |  |  | 
CNc1cc(Nc2cccc3ocnc23)nc2c(C(=O)N[C@H]3COC[C@H]3O)cnn12 [I-834] |  |  | 100 to 500 |  | > 50000 | < 50 | < 50 |  | 
CNc1cc(Nc2cccn(-c3ncccc3F)c2=O)nc2c(C(=O)O)cnn12 [I-893, 5-((3′-fluoro-2-oxo-2H-[1,2′-bipyridin]-3-yl)amino)-7-(methylamino) pyrazolo[1,5-a]pyrimidine-3-carboxylic acid] | 1 to 10 |  | > 1000 |  |  | < 50 | < 50 |  | 
CNc1cc(Nc2cccn3ccnc23)nc2c(C(=O)N[C@@H]3CC[C@H]3OC)cnn12 [I-1133] | 1 to 10 |  | < 100 |  |  |  |  |  | 
CNc1cc(-c2cn([C@H]3CCCOC3)c3ncccc23)nc2c(C(=O)N[C@H]3CC[C@@H]3OC)cnn12 [I-1283] | 1 to 10 |  | < 100 |  |  |  |  |  | 
CNc1cc(Nc2cccn(-c3ccccn3)c2=O)nc2c(C(=O)N[C@@H]3C[C@H]3OC)cnn12 [I-1286] | < 0.2 |  | < 100 |  |  |  |  |  | 
CNc1cc(Nc2cccn([C@H]3CCC[C@@H](O)C3)c2=O)nc2c(C(=O)N[C@H]3CC[C@@H]3OC)cnn12 [I-1296] | < 0.2 |  | < 100 |  |  |  |  |  | 

The next lines start with results.

Kd [1] [nM] | inhibition at 10 µM (Tyk2 kinase domain (DH1); compound at 10 μM, ATP 10 μM) [%] | IC50 [2] [nM] | inhibition at 10 µM (JAK2 kinase domain (JH1); compound at 10 μM, ATP 10 μM) [%] | IC50 [3] [nM] | inhibition at 10 µM (Tyk2 kinase domain (DH1); 10 μM compound, 10 μM ATP) [%] | inhibition at 10 µM (JAK2 kinase domain (JH1); 10 μM compound, 10 μM ATP) [%] | SMILES | Tyk2 JH1% Inhibition @ 10 μM (Tyk2 kinase domain (DH1); compound at 10 μM, ATP 10 μM) | JAK2 JH1% Inhibition @ 10 μM (JAK2 kinase domain (JH1); compound at 10 μM, ATP 10 μM)
< 0.2 |  | < 100 |  | > 50000 |  |  | CNc1cc(Nc2cccc(C)c2Cl)nc2c(C(N)=O)cnn12 [I-14] |  | 
< 0.2 | < 50 | < 100 | < 50 |  |  |  | CNc1cc(Nc2cccn([C@@H]3CCCOC3)c2=O)nc2c(C(=O)NC3CC3)cnn12 [I-351] |  | 
< 0.2 | < 50 | < 100 | < 50 |  |  |  | CNc1cc(Nc2cccn([C@H]3CC[C@@](C)(O)CC3)c2=O)nc2c(C(=O)N[C@H]3C[C@H]3F)cnn12 [I-370] |  | 
< 0.2 | < 50 | < 100 | < 50 |  |  |  | CNc1cc(Nc2cccn([C@H]3CC[C@](C)(O)CC3)c2=O)nc2c(C(=O)N[C@H]3C[C@H]3F)cnn12 [I-372] |  | 
 |  | < 100 |  | > 50000 |  |  | CNc1cc(Nc2cccnc2OC2CC2)nc2c(C(=O)N[C@H]3CC[C@@H]3O)cnn12 [I-397] | A (percent inhibition at 10 μM lower than 50) | A (percent inhibition at 10 μM lower than 50)
< 0.2 |  | < 100 |  | > 50000 |  |  | CNc1cc(Nc2cccc(C3CCCOC3)n2)nc2c(C(=O)N[C@@H]3C[C@@H]3F)cnn12 (stereo partly drawn) [I-522] |  | 
 |  | < 100 |  | > 50000 |  |  | CNc1cc(Nc2cccn([C@@H]3CCC[C@H](OC)C3)c2=O)nc2c(C(=O)NC3CC3)cnn12 [I-621] | A (percent inhibition at 10 μM lower than 50) | A (percent inhibition at 10 μM lower than 50)
 |  | < 100 |  | > 50000 |  |  | CNc1cc(Nc2cccn(-c3nc(C)co3)c2=O)nc2c(C(=O)N[C@@H]3CC[C@@H]3O)cnn12 [I-706] | A (percent inhibition at 10 μM lower than 50) | A (percent inhibition at 10 μM lower than 50)
 |  | < 100 |  | > 12500 | < 50 | < 50 | CNc1cc(-c2cn(CCN3CCCCC3)c3ncccc23)nc2c(C(=O)N[C@@H]3CC[C@H]3O)cnn12 [I-837] |  | 
< 0.2 |  | < 100 |  |  | < 50 | < 50 | CNc1cc(Nc2cccn([C@H]3CCC[C@@H](OC)C3)c2=O)nc2c(C(=O)NCC(C)(C)CO)cnn12 [I-861] |  | 
< 0.2 |  | < 100 |  |  | < 50 | < 50 | CNc1cc(Nc2cccn([C@H]3CCCN(CCF)C3)c2=O)nc2c(C(=O)N[C@@H]3C[C@@H]3F)cnn12 [I-900] |  | 
